Assay [1] deals with Human Umbilical Vein Endothelial Cells (HUVECs). As to the kind of experiment: Inhibition against sandwich tube formation by vascular endothelial cells, FGF2-stimulated. It counts as cell-based. The conditions noted are these: HUVEC, 20 ng/ml FGF2 and 10 ng/ml EGF, 4th day after addition. As to the method:
(§1) Human Umbilical Vein Endothelial Cells (HUVECs) were isolated according to a reported method (Shinseikagaku Jikken Koza [New Biochemistry Experiment Lectures], “Saibo Baiyo Gijutsu” [Cell Culturing Techniques], p. 197-202), • and were cultured in a 5% CO2 incubator (37° C.) using EGM-2 medium (purchased from Clonetics Corp.) until the cells reached confluency.
(§2) An ice-cooled mixture of collagen: 5×RPMI 1640: reconstitution buffer (all purchased from Nitta Gelatin, Inc.) at 7:2:1 was dispensed at 0.4 ml into each well of a 24-well plate. After the solution was gelled by being stationed for 40 minutes in a 5% CO2 incubator (37° C.), HUVEC cell suspension was added at 0.4 ml to each well (using 1 to 1.2×10^5 cells, though the numbers of cells differ slightly according to the HUVEC lot), the HUVEC cell suspension being in human endothelial serum free medium (SFM, purchased from GIBCO BRL) containing added angiogenesis factors [20 ng/ml FGF2 (purchased from GIBCO BRL) and 10 ng/ml EGF (purchased from GIBCO BRL), or 25 ng/ml VEGF (purchased from Wako Pure Chemical Industries Co., Ltd.) and 10 ng/ml EGF, or 30 ng/ml HGF (purchased from R&D Co.) and 10 ng/ml EGF], and cultured overnight in a 5% CO2 incubator (37° C.). On the following day, the medium on the upper layer was aspirated off, and then 0.4 ml of an ice-cooled mixture of collagen: 5×RPMI 1640: reconstitution buffer (all purchased from Nitta Gelatin, Inc.) at 7:2:1 was superposed into each well prior to stationing for 4 hours in a 5% CO2 incubator (37° C.) for gelling. After adding 1.5 ml of an SFM solution containing each of the aforementioned angiogenesis factors and a diluted test substance onto the upper layer, culturing was performed in a 5% CO2 incubator (37° C.). Upon aspirating off the culture supernatant in each well on the 4th day after addition of the test substance, 0.4 ml of a 3.3 mg/ml MTT solution dissolved in PBS (purchased from Sigma Corp.) was added to each well and culturing was performed for approximately 2 hours in a 5% CO2 incubator (37° C.). The tubes formed in the collagen gel of each well were stained by MTT, the tube images were loaded into a computer (Macintosh), and the total length of the tubes was determined by image analysis software “MacScope” (purchased from Mitani Corp.). The ratio of the total length of the tubes formed in the well containing the test substance with respect to the total length of the tubes formed in the well containing no test substance was expressed as a percentage, and the concentration of each test substance required for 50% inhibition of tube formation (IC50) was determined from the ratio value.

For assay [2] the test system is unchanged. As to the kind of experiment: Inhibition against sandwich tube formation by vascular endothelial cells, VEGF-stimulated. It is filed as cell-based. The conditions noted are these: HUVEC, 25 ng/ml VEGF and 10 ng/ml EGF, 4th day after addition. As to the method: as §1, §2

This note sets out measurements from patent publication US20060004029A1, “Nitrogen-containing aromatic derivatives” (priority 2003, published 2006).

Broadly, the IC50 is the midpoint of a concentration-inhibition curve. A lower IC50 goes with higher potency.

`CCNC(=O)n1ccc2cc(Oc3ccnc(NC(=O)N4CCC(C)(O)CC4)c3)ccc21` [Example 78, 5-(2-(((4-Hydroxy-4-methylpiperidin-1-yl)carbonyl)amino)pyridin-4-yloxy)-1H-indole-1-carboxylic acid ethylamide]: the IC50 is 450 nM in assay [1] and 3 nM in assay [2].
